Assay results reported in ChEMBL document CHEMBL2074098, “Estradiol 17 beta-D-glucuronide is a high-affinity substrate for oatp organic anion transporter” (Am J Physiol, 1996).

B1: Solute carrier organic anion transporter family member 1A1 (Rattus norvegicus) (protein)
chain: MEETEKKIATQEGRLFSKMKVFLLSLTCACLTKSLSGVYMNSMLTQIERQFDISTSVAGLINGSFEIGNLFFIVFVSYFGTKLHRPVVIGIGCVIMGLGCLLMSLPHFFMGRYEYETTISPTGNLSSNSFLCMENRTQTLKPTQDPAECVKEMKSLMWICVMVGNIIRGIGETPIVPLGISYIEDFAKSENSPLYIGILEMGKVAGPIFGLLLGSYCAQIYVDIGSVNTDDLTITPSDTRWVGAWWIGFLVCAGVNILTSIPFFFLPKALPKKGQQENVAVTKDGKVEKYGGQAREENLGITKDFLTFMKRLFCNPIYMLFILTSVLQVNGFINKFTFLPKYLEQQYGKSTAEAIFLIGVYSLPPICLGYLIGGFIMKKFKITVKKAAYLAFCLSVFEYLLFLCHFMLTCDNAAVAGLTTSYKGVQHQLHVESKVLADCNTRCSCSTNTWDPVCGDNGVAYMSACLAGCKKFVGTGTNMVFQDCSCIQSLGNSSAVLGLCKKGPECANRLQYFLILTIIISFIYSLTAIPGYMVFLRCVKSEEKSLGVGLHTFCIRVFAGIPAPVYFGALIDRTCLHWGTLKCGQRGACRMYDINSFRHIYLGLPIALRGSSYLPAFFILILMRKFQFPGDIDSSATDHTEMMLGEKESEHTDVHGSPQVENDGELKTKL

These molecules were tested against T1, Solute carrier organic anion transporter family member 1A1 (Rattus norvegicus, UniProt P46720) (assay: TP_TRANSPORTER: inhibition of E217betaG uptake in Oatp1-expressing HeLa cells).
T1 sequence (P46720 whole entry): B1 chain
Type: functional, cell-based

How did the Ki turn out when `C#C[C@]1(OS(=O)(=O)O)CC[C@H]2[C@@H]3CCc4cc(O)ccc4[C@H]3CC[C@@]21C` was run?
The Ki was 1.3 µM.

`C[C@]12CC[C@@H]3c4ccc(O)cc4CC[C@H]3[C@@H]1CC[C@@]2(O)CC(=O)O` was tested. Which Ki did it give?
The Ki was greater than 200 µM.

Which Ki does the source give for `C[C@]12CC[C@@H]3c4ccc(OS(=O)(=O)O)cc4CC[C@H]3[C@@H]1CC[C@@H]2O` here?
Its Ki is 1.1 µM.

Which Ki does the source give for `C[C@]12CC[C@@H]3c4ccc(O[C@@H]5O[C@H](C(=O)O)[C@@H](O)[C@H](O)[C@H]5O)cc4CC[C@H]3[C@@H]1CC[C@@H]2O` here?
Its Ki is 9.7 µM.

With `C[C@]12CC[C@@H](OS(=O)(=O)O)C[C@@H]1CC[C@@H]1[C@@H]2CC[C@]2(C)C(=O)CC[C@@H]12` as the molecule, how does the Ki read?
The Ki was 2.4 µM.

With `C[C@]12CC[C@H]3[C@@H](CCC4=CC(=O)CC[C@@]43C)[C@@H]1CC[C@@H]2O[C@@H]1O[C@H](C(=O)O)[C@@H](O)[C@H](O)[C@H]1O` as the molecule, how does the Ki read?
The Ki was 3.8 µM.

With `C[C@]12C[C@H](O)[C@H]3[C@@H](CCC4=CC(=O)CC[C@@]43C)[C@@H]1CC[C@@H]2C(=O)COS(=O)(=O)O` as the molecule, how does the Ki read?
The Ki was 1.6 µM.

With `CC(=O)O[C@@H]1CC[C@@]2(C)[C@@H](CC[C@@H]3[C@@H]2CC[C@]2(C)C(=O)CC[C@@H]32)C1` [ANDROSTERONE ACETATE] as the molecule, how does the Ki read?
Its Ki is 76.2 µM.

`C[C@]12CC[C@@H](O)C[C@@H]1CC[C@@H]1[C@@H]2CC[C@]2(C)C(=O)CC[C@@H]12` [ANDROSTERONE] was tested. Which Ki did it give?
The Ki was 10.6 µM.

`C[C@]12C[C@H](O)[C@H]3[C@@H](CCC4=CC(=O)CC[C@@]43C)[C@@H]1CC[C@@H]2C(=O)CO` [CORTICOSTERONE] was tested. Which Ki did it give?
The Ki was 5.3 µM.

`C[C@]12CC[C@@H]3c4ccc(O)cc4CC[C@H]3[C@@H]1CC[C@@H]2O` [ESTRADIOL] was tested. Which Ki did it give?
The Ki was 4.7 µM.

With `C[C@]12CC[C@@H]3c4ccc(O)cc4CC[C@H]3[C@@H]1C[C@@H](O)[C@@H]2O` [ESTRIOL] as the molecule, how does the Ki read?
The Ki was 9.8 µM.

How did the Ki turn out when `C[C@]12CC[C@@H]3c4ccc(OS(=O)(=O)O)cc4CC[C@H]3[C@@H]1CCC2=O` [ESTRONE SULFURIC ACID] was run?
The Ki was 1.3 µM.

With `C[C@]12CC[C@@H]3c4ccc(O)cc4CC[C@H]3[C@@H]1CCC2=O` [ESTRONE] as the molecule, how does the Ki read?
The Ki was 15.7 µM.

For `C[C@]12CC[C@H]3[C@@H](CCC4=CC(=O)CC[C@@]43C)[C@@H]1CC[C@@H]2O` [TESTOSTERONE], which Ki is on record?
Its Ki is 5.4 µM.

These molecules were tested on C[C@]12CC[C@@H]3c4ccc(O)cc4CC[C@H]3[C@@H]1CC[C@@H]2O[C@@H]1O[C@H](C(=O)O)[C@@H](O)[C@H](O)[C@H]1O (assay: TP_TRANSPORTER: uptake in Oatp1-expressing HeLa cells).
Type: functional, cell-based

With B1 as the molecule, how does the Km read?
The Km was 3.2 µM.
